Target: T1, human leukocyte elastase (HLE) (Homo sapiens, UniProt P08246)
T1 construct: CEREP (contract assay)
T1 sequence (P08246 30-267): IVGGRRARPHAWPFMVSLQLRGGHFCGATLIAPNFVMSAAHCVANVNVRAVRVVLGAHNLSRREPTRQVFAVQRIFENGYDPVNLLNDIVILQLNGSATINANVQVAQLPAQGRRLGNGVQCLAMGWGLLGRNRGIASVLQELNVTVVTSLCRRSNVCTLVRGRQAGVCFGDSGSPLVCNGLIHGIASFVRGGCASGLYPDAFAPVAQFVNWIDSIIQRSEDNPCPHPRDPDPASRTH
Assay: Human Elastase Assay test (CEREP catalog), photometry
Assay type: biochemical
Settings: for inhibition at 1000 µM: compound at 1 mM, reference substrate MeOSAAPV-pNa at 0.1 mM, photometry, read-out: Elastase inhibition activity (conc 1 mM); for IC50: human elastase, read-out: IC50 (concentration that produces 50% inhibition of the human elastase activity)
Description: The molecules have been evaluated in vitro on a Human Elastase Assay test, available in the CEREP catalog.
The results are expressed as a percentage of activity versus a specific control (activity measured with compounds of the invention/control activity without the compound of the invention)×100.
The control is the enzymatic activity of human leukocyte elastase (HLE) on a reference substrate (MeOSAAPV-pNa at 0.1 mM).
The detection method used is photometry.
This method is described in the literature: Adeyemi et al 1990, J. Pharm. Pharmacol. 42, 487-490.
The concentration that produces 50% inhibition of the human elastase activity (IC50) was measured.

| Structure (SMILES) | inhibition at 1000 µM [%] | IC50 [mM] | effectiveness for inhibiting elastase activity compared with the compound of the prior art (comparison in words) |
| --- | --- | --- | --- |
| CC(=O)N(c1ccc(C(=O)O)c(O)c1)[C@H](C(=O)NCC(=O)O)C(C)C [Compound 1, N-ACETYL-N-(4-CARBOXY-3-HYDROXYPHENYL)VALYLGLYCINE] | 98 |  |  |
| CC(=O)N(c1cc(C(=O)O)cc(C(=O)O)c1)[C@H](C(=O)NCC(=O)O)C(C)C [Compound 3, N-ACETYL-N-(3,5-DICARBOXYPHENYL)VALYLGLYCINE] | 98 |  |  |
| CC(=O)N(c1cccc(O)c1)[C@H](C(=O)NCC(=O)O)C(C)C [Compound 7, N-ACETYL-N-(3-HYDROXYPHENYL)VALYLGLYCINE] | 62 |  |  |
| CC(=O)N(c1ccc(C(=O)O)c(C(=O)O)c1)[C@H](C(=O)NCC(=O)O)C(C)C [Compound 2, N-ACETYL-N-(3,4-DICARBOXYPHENYL)VALYLGLYCINE] | 98 |  |  |
| CC(=O)N(c1cccc(C(F)(F)F)c1)C(C(=O)NCC(=O)O)C(C)C (centres unmarked) [Z, reference compound] |  | 6.38 |  |
| COC(=O)c1cc(C(=O)OC)cc(N(C(C)=O)C(C(=O)NCC(=O)O)C(C)C)c1 (centres unmarked) [Compound 6, N-ACETYL-N-[3,5-BIS(METHOXYCARBOXY)PHENYL]VALYLGLYCINE] | 65 |  |  |
| CC(=O)N(c1ccc(C(=O)O)cc1)C(C(=O)NCC(=O)O)C(C)C (centres unmarked) [Compound 8] | 88 |  |  |
| CC(=O)N(c1cccc(C#N)c1)C(C(=O)NCC(=O)O)C(C)C (centres unmarked) [Compound 4] | 35 | 5.6 | clearly more effective than the compound of the prior art |
| CCOC(=O)c1cc(N(C(C)=O)[C@H](C(=O)NCC(=O)O)C(C)C)ccc1O [Compound 5, N-ACETYL-N-[3-(ETHOXYCARBONYL)-4-HYDROXYPHENYL]VALYLGLYCINE] | 62 |  |  |
